# Assays:
# human MTAP = biological target: T1, human MTAP (Homo sapiens, UniProt Q13126); experiment: Inhibition assay of MTAP; assay type: biochemical; conditions: for binding to the catalytic site of MTAP: at concentrations of 5 μM inhibitor
# T1 sequence (Q13126 1-283): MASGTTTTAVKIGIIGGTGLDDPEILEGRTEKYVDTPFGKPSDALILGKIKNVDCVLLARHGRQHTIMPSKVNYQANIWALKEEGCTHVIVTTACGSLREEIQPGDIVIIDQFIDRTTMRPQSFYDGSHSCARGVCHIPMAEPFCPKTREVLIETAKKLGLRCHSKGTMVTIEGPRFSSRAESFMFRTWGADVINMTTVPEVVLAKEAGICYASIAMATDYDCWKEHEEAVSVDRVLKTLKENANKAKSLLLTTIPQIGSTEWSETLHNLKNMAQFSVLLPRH
# HpMTAN = biological target: T2, HpMTAN (Helicobacter pylori, UniProt Q9ZMY2); experiment: Inhibition assay of HpMTAN; assay type: biochemical; conditions: for preference for HpMTAN (specificity ratio Kd Hs/Hp): affinity for human MTAP relative to HpMTAN; for binding to the catalytic site of HpMTAN: at concentrations of 5 μM inhibitor
# T2 sequence (Q9ZMY2 1-230): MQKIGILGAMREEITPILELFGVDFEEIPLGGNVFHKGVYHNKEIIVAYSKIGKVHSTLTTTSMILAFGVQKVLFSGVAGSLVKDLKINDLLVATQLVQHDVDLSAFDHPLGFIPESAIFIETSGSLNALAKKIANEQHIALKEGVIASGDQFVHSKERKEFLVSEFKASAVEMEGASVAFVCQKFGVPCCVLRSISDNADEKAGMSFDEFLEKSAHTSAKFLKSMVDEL
structure (smiles),measurement,setting,value
"CSC[C@H]1CN(Cc2c[nH]c3c(N)nccc23)C[C@@H]1O [compound 8, 3-deazaMTDIA]","increase of dissociation constant relative to MTDIA (1), MTAP",human MTAP; compared with 1 (86 pM),> 100 fold
same,"increase of dissociation constant relative to MTDIA (1), HpMTAN",HpMTAN; compared with 1 (86 pM),> 100 fold
C#CCSC[C@H]1CN(Cc2c[nH]c3c(N)ncnc23)C[C@@H]1O [compound 15],Kd,HpMTAN,0.026 to 0.055 nM
same,preference for HpMTAN (specificity ratio Kd Hs/Hp),HpMTAN,12- to 36 fold
C#CCCCSC[C@H]1CN(Cc2c[nH]c3c(N)ncnc23)C[C@@H]1O [compound 16],Kd,HpMTAN,0.026 to 0.055 nM
same,preference for HpMTAN (specificity ratio Kd Hs/Hp),HpMTAN,12- to 36 fold
CCCCn1cc(CCCSC[C@H]2CN(Cc3c[nH]c4c(N)ncnc34)C[C@@H]2O)nn1 [compound 30],Kd,HpMTAN,0.026 to 0.055 nM
Nc1ncnc2c(CN3C[C@H](CSCCCc4cn(Cc5ccccc5)nn4)[C@@H](O)C3)c[nH]c12 [compound 32],Kd,HpMTAN,0.026 to 0.055 nM
O=c1[nH]ccc2c(CN3C[C@H](CO)[C@@H](O)C3)c[nH]c12 [compound 34],binding to the catalytic site of MTAP,human MTAP,eliminates binding
same,binding to the catalytic site of HpMTAN,HpMTAN,eliminates binding
CSC[C@H]1CN(Cc2c[nH]c3c(=O)[nH]ccc23)C[C@@H]1O [compound 35],binding to the catalytic site of MTAP,human MTAP,eliminates binding
same,binding to the catalytic site of HpMTAN,HpMTAN,eliminates binding

# Source: paper PMC6635953 (Journal of medicinal chemistry, 2019)
